Laboratory results published in patent publication US20250059165A1, “PIPERIDINYLPYRIDINYLCARBONITRILE DERIVATIVES AS INHIBITORS OF GLUTAMINYL-PEPTIDE CYCLOTRANSFERASE AND GLUTAMINYL-PEPTIDE CYCLOTRANSFERASE LIKE PROTEIN” (Boehringer Ingelheim International GmbH, priority 2023, published 2025).

What was measured:
[1] = tested on: SIRPα signalling induced by A549 cells; experiment: Assay B: SIRPα signalling assay using A549 cells; assay type: cell-based; conditions: Homo sapiens, 48 h compound incubation, Jurkat PathHunter SIRPαV1 reporter cells, read-out: Inhibition of SIRPα signalling induced by A549 cells: IC50
Method: (§1) Two cell types are independently used: the Raji cell line (lymphoblast-like human cell line derived from B lymphocytes from a Burkitt's lymphoma patient in 1963) and A549 cells (adenocarcinomic human alveolar basal epithelial cells).
(§2) Test compounds were dissolved in 100% DMSO and serially diluted into a white 384-well microtiter cell culture plate (PerkinElmer #60076780 in case of Raji assay; PDL-coated plates Greiner #781945 in case of A549 assay). 5000 Raji cells (ATCC #CC86) or 5000 A549 cells (ATCC #CCL-185) in Assay Complete Cell Plating reagent 30 (DiscoverX 93-0563R30B) were added per well. The assay plate was incubated for 48 h at 37° C., 95% humidity and 5% CO2. 15000 reporter cells (Jurkat PathHunter SIRPαV1, DiscoverX #93-1135C19) were added to each well, and the plate was incubated for 5 h at 37° C., 95% humidity and 5% CO2. Bioassay reagent 1 of the PathHunter Bioassay detection kit (DiscoverX 93-0001) was added to each well of the plate using a multichannel pipette followed by a 15 min incubation at room temperature. Afterwards bioassay reagent 2 was added followed by […] incubation at room temperature (incubation in the dark). The analysis of the data was performed using the luminescence signal generated by beta-galactosidase in the PathHunter reporter cell line. The luminescence measurement was done using a Pherastar Multi-Mode Reader. Dose-response curves & IC50 data were calculated with 4-parameter sigmoidal dose response formula.

[2] = tested on: SIRPα signalling induced by Raji cells; experiment: Assay B: SIRPα signalling assay using Raji cells; assay type: cell-based; conditions: Homo sapiens, 48 h compound incubation, Jurkat PathHunter SIRPαV1 reporter cells, read-out: Inhibition of SIRPα signalling induced by Raji cells: IC50
Method: as §1, §2

[3] = Assay C: permeability in CACO-2 cells; assay type: in vitro ADME; conditions: human, pH 7.2; for Papp A→B: Caco-2, apical to basolateral; for efflux ratio: Caco-2, Permeability B-A/Permeability A-B
Method: Caco-2 cells (1−2×10^5 cells/1 cm^2 area) are seeded on filter inserts (Costar transwell polycarbonate or PET filters, 0.4 µm pore size) and cultured (DMEM) for 10 to 25 days. Compounds are dissolved in appropriate solvent (like DMSO, 1-20 mM stock solutions). […] The transport solution (TL) is applied to the apical or basolateral donor side for measuring A-B or B-A permeability (3 filter replicates), respectively. Samples are collected at the start and end of experiment from the donor and at various time intervals for up to 2 hours also from the receiver side for concentration measurement by HPLC-MS/MS or scintillation counting. Sampled receiver volumes are replaced with fresh receiver solution. Efflux Ratio (ER)=Permeability B-A/Permeability A-B

[4] = target: T1, QPCTL (Homo sapiens, UniProt Q9NXS2); experiment: Assay A: biochemical QPCTL activity assay (MALDI-TOF MS, CD47 peptide substrate); conditions: 0.5 nM enzyme, 10 μM CD47 peptide substrate; read-out: Inhibition of QPCTL: IC50
T1 construct: made in house
T1 sequence (Q9NXS2 whole entry): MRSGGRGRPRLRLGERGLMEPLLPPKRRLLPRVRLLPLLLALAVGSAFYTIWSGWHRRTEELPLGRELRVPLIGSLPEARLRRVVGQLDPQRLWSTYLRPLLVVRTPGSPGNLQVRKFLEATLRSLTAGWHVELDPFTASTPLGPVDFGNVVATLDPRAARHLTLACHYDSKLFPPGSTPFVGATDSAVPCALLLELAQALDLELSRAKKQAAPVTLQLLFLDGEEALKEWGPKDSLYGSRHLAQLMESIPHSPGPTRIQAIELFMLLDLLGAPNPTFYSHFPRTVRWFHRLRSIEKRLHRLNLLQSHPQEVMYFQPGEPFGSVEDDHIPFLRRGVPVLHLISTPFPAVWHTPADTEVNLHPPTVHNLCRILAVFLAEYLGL
Method: (§3) QPCT or QPCTL dependent conversion of N-terminal glutamine to pyroglutamate of CD47 was monitored via MALDI-TOF MS. Test compounds were dissolved in 100% DMSO and serially diluted into clear 1,536-well microtiter plates. […] The plates were incubated for 10 min in a humidified incubator at 24° C. Subsequently, 2.5 μL of CD47 peptide substrate surrogate (^19[…]^33) was added to each well (final concentration: 10 μM for QPCTL/20 μM for QPCT). […] The plates were sealed with an adhesive foil, mixed for 30 s at 1,000 rpm and stored at room temperature until preparation of the MALDI target plates. MALDI target plates were prepared as described previously. […] QPCT or QPCTL activity was monitored by calculating the ratio between product and internal standard signals followed by normalization to high (100% activity) and low (0% activity) controls. Determination of compound potencies was obtained by fitting the dose-response data to a four-parameter logistical equation.

[5] = target: T2, QPCT (Homo sapiens, UniProt Q16769); experiment: Assay A: biochemical QPCT activity assay (MALDI-TOF MS, CD47 peptide substrate); conditions: 0.5 nM enzyme, 20 μM CD47 peptide substrate; read-out: Inhibition of QPCT: IC50
T2 construct: purchased Origine (OriGene) TP700028
T2 sequence (Q16769 29-361): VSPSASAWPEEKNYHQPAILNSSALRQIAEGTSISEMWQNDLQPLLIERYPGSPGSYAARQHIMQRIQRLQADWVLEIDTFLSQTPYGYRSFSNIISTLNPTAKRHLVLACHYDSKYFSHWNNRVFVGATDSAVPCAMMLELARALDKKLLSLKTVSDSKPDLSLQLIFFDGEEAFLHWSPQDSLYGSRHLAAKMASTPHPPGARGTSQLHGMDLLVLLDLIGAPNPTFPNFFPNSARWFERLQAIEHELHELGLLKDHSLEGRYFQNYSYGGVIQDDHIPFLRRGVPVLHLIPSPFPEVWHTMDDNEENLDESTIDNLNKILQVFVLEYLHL
Method: as §3

Structure (SMILES)	IC50 [1] [nM]	IC50 [2] [nM]	Papp A→B [3] [×10⁻⁶ cm/s]	IC50 [4] [nM]	IC50 [5] [nM]	efflux ratio [3]
Cn1cnnc1C1(F)CCN(c2c(C#N)ccnc2-c2cnn3nc(-c4cccc(Cl)c4)ccc23)CC1 [Example 28]	53	70	28	–	–	–
Cn1cnnc1C1(F)CCN(c2c(C#N)ccnc2-c2cnn3nc(-c4ccccc4C#N)ccc23)CC1 [Example 22]	51	117	–	2	2	–
Cn1cnnc1C1(F)CCN(c2c(C#N)ccnc2-c2cnc3nnn(Cc4ccc(C(F)(F)F)nc4)c3c2)CC1 [Example 14]	202	673	0.7	3	11	32.8
Cc1ccc(-c2ccc3c(-c4nccc(C#N)c4N4CCC(F)(c5nncn5C)CC4)cnn3n2)c(C)c1 [Example 32]	21	72	60	–	–	–
COc1ccc(-c2ccc3c(-c4nccc(C#N)c4N4CCC(F)(c5nncn5C)CC4)cnn3n2)c(F)c1 [Example 23]	46	158	–	4	4	–
Cn1cnnc1C1(F)CCN(c2c(C#N)ccnc2-c2cnc3nn(Cc4ccc(C(F)(F)F)nc4)nc3c2)CC1 [Example 13]	358	596	6.2	8	24	9
Cn1cnnc1C1(F)CCN(c2c(C#N)ccnc2-c2cnn3nc(-c4ccccc4F)ccc23)CC1 [Example 31]	31	54	54	3	3	1.2
Cc1noc(C)c1-c1ccc2c(-c3nccc(C#N)c3N3CCC(F)(c4nncn4C)CC3)cnn2n1 [Example 24]	184	981	16	14	8	4.6
Cn1cnnc1C1(F)CCN(c2c(C#N)ccnc2-c2cnc(F)c(N)c2)CC1 [Example 9]	39	103	5.8	2	4	4.5
Cn1cnnc1C1(F)CCN(c2c(C#N)cc(C3CC3(F)F)nc2-c2ccc(F)nc2)CC1 (stereo not shown) [Example 3]	40	131	47	1	4	1.3
COCCOc1ncc(-c2nccc(C#N)c2N2CCC(F)(c3nncn3C)CC2)cn1 [Example 10]	283	536	1.6	8	30	13.1
Cn1cnnc1C1(F)CCN(c2c(C#N)ccnc2-c2cnn3nc(-c4ccc(Cl)cc4)ccc23)CC1 [Example 27]	52	106	16	4	3	2.2
Cc1ccccc1-c1ccc2c(-c3nccc(C#N)c3N3CCC(F)(c4nncn4C)CC3)cnn2n1 [Example 19]	6	20	–	–	–	–
Cn1cnnc1C1(F)CCN(c2c(C#N)ccnc2-c2cnn3nc(-c4cscc4C#N)ccc23)CC1 [Example 26]	101	148	7.2	3	2	11.5
Cn1cnnc1C1(F)CCN(c2c(C#N)cc(C3CC3(F)F)nc2-c2cnc3nn(C(C)(C)C)cc3c2)CC1 (stereo not shown) [Example 4]	17	15	8.8	–	–	–
COc1cc(C#N)c(N2CCC(F)(c3nncn3C)CC2)c(-c2ccc(F)nc2)n1 [Example 5]	60	617	27	4	9	1.6

Structure (SMILES)	IC50 [1] [nM]	IC50 [2] [nM]	Papp A→B [3] [×10⁻⁶ cm/s]	IC50 [4] [nM]	IC50 [5] [nM]	efflux ratio [3]
Cn1cnnc1C1(F)CCN(c2c(C#N)ccnc2-c2cnc3nn(Cc4ccccc4)nc3c2)CC1 [Example 12]	45	150	9.4	3	4	9.9
Cn1cnnc1C1(F)CCN(c2c(C#N)cc(C(F)(F)F)nc2-c2cnc3occc3c2)CC1 [Example 15]	410	296	47	15	58	1.6
Cn1cnnc1C1(F)CCN(c2c(C#N)cc(C(C)(C)O)nc2-c2ccc(F)nc2)CC1 [Example 1]	41	77	8.7	2	3	6.3
Cn1cnnc1C1(F)CCN(c2c(C#N)cc(C(C)(C)O)nc2-c2cnc3nn(C(C)(C)C)c(Cl)c3c2)CC1 [Example 2]	40	20	4.5	–	–	–
Cn1cnnc1C1(F)CCN(c2c(C#N)ccnc2-c2cnn3nc(-c4cc(Cl)ccc4C#N)ccc23)CC1 [Example 18]	16	44	–	2	1	–
Cn1cnnc1C1(F)CCN(c2c(C#N)cc(C(F)(F)F)nc2-c2cnc3nc(C(C)(C)C)oc3c2)CC1 [Example 16]	32	27	33	–	–	–
Cn1cnnc1C1CCN(c2ncccc2-c2ccc(F)nc2)CC1 [SEN177, reference compound]	214	1360	–	–	–	–
CC(C)c1ccccc1-c1ccc2c(-c3nccc(C#N)c3N3CCC(F)(c4nncn4C)CC3)cnn2n1 [Example 30]	17	87	46	2	1	0.7
Cn1cnnc1C1(F)CCN(c2c(C#N)ccnc2-c2cnn3nc(-c4c(F)cccc4F)ccc23)CC1 [Example 21]	11	16	–	2	1	–
Cn1cnnc1C1(F)CCN(c2c(C#N)ccnc2-c2cnn3nc(-c4ccc(Cl)cc4Cl)ccc23)CC1 [Example 20]	29	83	–	2	3	–
Cn1cnnc1C1(F)CCN(c2c(C#N)ccnc2-c2cncc(-c3ncco3)c2)CC1 [Example 11]	419	1170	13	13	48	5
Cn1cnnc1C1(F)CCN(c2c(C#N)ccnc2-c2cnn3nc(-c4ccccc4Cl)ccc23)CC1 [Example 29]	27	64	39	2	1	1.7
Cn1cc(-c2ccc3c(-c4nccc(C#N)c4N4CCC(F)(c5nncn5C)CC4)cnn3n2)cn1 [Example 25]	78	150	5.3	1	6	7.7
Cn1c(N)nnc1C1CCN(c2ncccc2-c2ccc(F)nc2)CC1 [Prior art Compound 6, reference compound]	12	8	0.2	1	1	65
Cn1cnnc1C1(F)CCN(c2c(C#N)ccnc2-c2cnn3nc(-c4cccnc4Cl)ccc23)CC1 [Example 17]	71	274	–	5	5	–
